Assay results from publication PMC4886532, “A highly soluble, non-phototoxic, non-fluorescent blebbistatin derivative” (Scientific Reports, 2016).
≈ marks a conversion by molar mass, not a printed value.

Key:
M2 cells = test: Inhibition of blebbing (blebbing index) of M2 cells; assay type: cell-based, human
Description: Next, we compared the non-muscle myosin II inhibition by para-aminoblebbistatin, para-nitroblebbistatin and blebbistatin in human melanoma (M2) and HeLa cells. As blebbistatin acquired its name from its ability to block blebbing of M2 cells, we compared blebbing indices[17] of M2 cells in time, incubated in the three different myosin II inhibitors at different concentrations (Fig. 3c–e). Even 5 μM concentrations of the myosin II inhibitors achieved significant decrease in the blebbing indices of the cells within an hour, whereas higher concentrations of the inhibitors completely stopped blebbing of the cells within >40–60 minutes (10 μM) or >20 minutes (25 and 50 μM).
For blebbing index determination, M2 cells were incubated for 30 minutes in PBS in every case prior to the addition of inhibitors, in order to initiate extensive blebbing. Blebbing of the cells was monitored before as well as after inhibitor addition to the cells. DMSO concentration was 0.1 vol/vol% in all experiments. Blebbing index was calculated by summing the initiated blebs in a 5-minute interval (starting at the indicated time points) on a given standard area[17] (whole cells with similar size, diameter = 12 ± 1 μm) and normalizing it to the blebbing index prior to inhibitor treatment.

[1] = biological target: T1, rabbit skeletal muscle myosin S1 (SkS1) (Oryctolagus cuniculus, UniProt Q28641); test: Steady state actin activated ATPase, SkS1; assay type: biochemical; conditions: for IC50: 45 μM actin, 25 °C
T1 construct: SkS1 (rabbit skeletal S1 fragment); from tissue; host or cells: rabbit skeletal muscle
Description: […]. Myosin and actin together with the indicated concentration of the inhibitor were pre-incubated for 5 minutes at room temperature and the measurements were initiated with 1 mM ATP. Data were corrected for background ATPase activity of actin. G-actin was prepared accordingly from rabbit skeletal muscle[24] and polymerized by 2 mM MgCl2 for 1 hour at room temperature. Measurements were performed in low salt buffer containing 5 mM HEPES, 2 mM MgCl2, 0.1 mM EGTA and 2 mM DTT at pH 7.2 or assay buffer containing 20 mM HEPES, 40 mM NaCl, 4 mM MgCl2 at pH 7.3 for basal ATPase activity measurements with DdMD.

HeLa cells = test: Wound healing assay (cell motility); assay type: cell-based, human; conditions: 20 μM, 24 hours, uncoated glass; 100% = total diameter of the wound; control 30.6 ± 5.4%
Description: For wound healing assays, 200 μl of HeLa cells were plated on 35 mm borosilicate glass imaging dishes at 300,000 cells/ml concentrations and incubated for 24 hours. 1 hour prior to wounding, cells were incubated in 20 μM of the different myosin II inhibitors. After one hour, scratches were made with pipette tips in monolayer cultures and the motility of cells for occupying the wound was monitored for 24 hours with a Foculus Digital Camera (IEEE1394). Analysis of cell motility was carried out by ImageJ, by measuring the distance between two lines fitted on the two sides of the approaching cell edges created by the pipette tips.

smooth muscle myosin II = test system: smooth muscle myosin II; design: method as in PMID 15548862; conditions: read-out: IC50 actin activated ATPase activity; cited from earlier work
[2] = Solubility assays in assay buffer (supernatant concentration after centrifugation); conditions: for Solubility: room temperature
Description: 50 μM of the inhibitors were dissolved in assay buffer (see Experimental Procedures) containing 0.1 or 1 vol/vol% DMSO, centrifuged at the indicated times and the concentration of the supernatants were determined at each time point (Fig. 2a,b).
The DMSO content was 1%. […] The experiments were repeated three times.

zebrafish embryo = test system: zebrafish embryo; design: method as in PMID 24954740; conditions: after 24 hours of incubation; cited from earlier work
[3] = test system: zebrafish skeletal muscle; test: Fast escape response (C-start), maximal angular velocity; assay type: in vivo, zebrafish (Danio rerio); conditions: 2 μM
Description: (§1) Since the myosin II inhibitors decrease the ATPase activity of SkS1 in vitro, we tested their inhibition on zebrafish skeletal muscle in vivo. We investigated the fast escape response (C-start) reflex of 6 dpf fish evoked by standardized tapping stimuli (Video 1). […] The velocity of the rotating heads of the embryos were quantified (maximal angular velocity) in the absence and in the presence of increasing concentrations of the myosin II inhibitors (2, 5, 10, 20 μM), monitored for 4 hours. The half maximal effective concentration (EC50) values for the inhibition of the maximal angular velocity by the myosin II inhibitors are below 2 μM since even at 2 μM the inhibitory effects were >90% for all inhibitors. We experienced that the inhibitory effect of para-aminoblebbistatin is exerted much slower than that of blebbistatin and para-nitroblebbistatin, probably due to its slower uptake (half inhibitions at […], respectively) (Supplementary Figure 1). To further evaluate the specificity of blebbistatin and its derivatives on different myosin II isoforms, we examined the effect of the inhibitors on 6 dpf (days post fertilization) zebrafish heart muscle in vivo. We monitored heart beating and the amplitude of heart muscle contraction before and after the addition of 20 μM of the inhibitors to the specimens.
(§2) The tapping force was standardized. […] For the cytotoxicity assay, zebrafish embryos were incubated in E3 medium containing 0 μM (Control), 5 μM, 10 μM or 20 μM of para-aminoblebbistatin, para-nitroblebbistatin or blebbistatin in 0.1 vol/vol% final concentration of DMSO and monitored for 70 hours.

[4] = test system: cldnb:gfp zebrafish embryos; test: Posterior lateral line primordium (pLLp) migration; assay type: in vivo, zebrafish (Danio rerio); conditions: 20 μM, 24 hours of incubation
Description: However, the highly fluorescent, dense precipitates of blebbistatin disturb imaging in the GFP channel of the microscope. […] In this experiment, cldnb:gfp zebrafish embryos were imaged by an epifluorescent microscope after 24 hours of incubation in the presence of 20 μM concentrations of the indicated inhibitors (Fig. 4d) in order to detect the effect of myosin II inhibition on the proliferating leading edge of the posterior lateral line primordium (pLLp)[21] and visualize the effect of the precipitates by epifluorescent microcopy. […] In the case of para-aminoblebbistatin treatment, the GFP signal of the migrating pLLp can be visualized clearly, while the precipitates of the two other inhibitors highly disturbed the imaging.

zebrafish heart muscle = test: Heart beating and amplitude of heart muscle contraction; assay type: in vivo, zebrafish (Danio rerio); conditions: 20 μM, 6 dpf
Description: as §1, §2

[5] = biological target: T1, rabbit skeletal muscle myosin S1 (SkS1); test: Steady state basal ATPase, SkS1; assay type: biochemical; conditions: 25 °C
[6] = test system: HeLa Kyoto H2B-mCherry eGFP-α-tubulin cells; test: Cell growth assay (cell number, cytokinesis)
Description: Cells incubated in different concentrations of the inhibitors were counted on each day for three days.

T1 sequence (Q28641 1-844 limits assumed): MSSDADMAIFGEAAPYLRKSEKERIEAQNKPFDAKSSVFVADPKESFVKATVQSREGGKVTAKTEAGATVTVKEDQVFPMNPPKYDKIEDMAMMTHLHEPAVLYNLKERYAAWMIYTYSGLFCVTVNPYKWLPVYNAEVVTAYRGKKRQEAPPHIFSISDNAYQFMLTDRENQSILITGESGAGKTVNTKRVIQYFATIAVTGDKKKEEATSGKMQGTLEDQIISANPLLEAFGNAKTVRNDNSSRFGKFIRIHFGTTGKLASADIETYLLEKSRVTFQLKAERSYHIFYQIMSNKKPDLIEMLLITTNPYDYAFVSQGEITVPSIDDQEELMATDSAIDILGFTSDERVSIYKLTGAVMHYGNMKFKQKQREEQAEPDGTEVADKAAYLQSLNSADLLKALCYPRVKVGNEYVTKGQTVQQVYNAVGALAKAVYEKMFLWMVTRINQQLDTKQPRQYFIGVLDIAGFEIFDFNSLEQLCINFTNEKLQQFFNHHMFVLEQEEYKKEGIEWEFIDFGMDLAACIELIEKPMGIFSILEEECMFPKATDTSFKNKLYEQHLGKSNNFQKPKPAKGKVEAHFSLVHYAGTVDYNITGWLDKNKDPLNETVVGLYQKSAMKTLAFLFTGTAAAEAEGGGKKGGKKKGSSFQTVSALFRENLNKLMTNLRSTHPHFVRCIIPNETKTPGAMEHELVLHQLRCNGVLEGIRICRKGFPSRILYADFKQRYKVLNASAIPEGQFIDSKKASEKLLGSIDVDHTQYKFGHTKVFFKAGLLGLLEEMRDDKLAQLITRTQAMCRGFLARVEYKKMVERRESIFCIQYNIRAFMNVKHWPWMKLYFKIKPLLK
T1 sequence (P02602 whole entry partner, the tested form may be a part): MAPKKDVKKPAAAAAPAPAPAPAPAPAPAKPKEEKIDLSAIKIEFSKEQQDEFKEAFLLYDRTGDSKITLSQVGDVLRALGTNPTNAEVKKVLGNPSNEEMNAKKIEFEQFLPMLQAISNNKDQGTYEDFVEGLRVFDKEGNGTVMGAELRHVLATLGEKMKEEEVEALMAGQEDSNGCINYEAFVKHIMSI

SMILES	Time constant τ of inhibition of blebbing (M2 cells; 5 μM) [min]	Time constant τ of inhibition of blebbing (M2 cells; 10 μM) [min]	Time constant τ of inhibition of blebbing (M2 cells; 25 μM) [min]	IC50 [1] [nM]	Relative migration of HeLa cells (HeLa cells) [%]	Half inhibition time of maximal angular velocity [3] [h]	Effect on pLLp migration [4]	Time within which amplitude of contraction and blood circulation dropped drastically (zebrafish heart muscle)	IC50 [5] [nM]	further results
Cc1ccc2c(c1)C(=O)C1(O)CCN(c3ccccc3)C1=N2 (stereo not drawn) [blebbistatin]	24.6 ± 2	10.5 ± 0.8	5.4 ± 1	110 ± 9	51.4 ± 4.7	0.6	halted pLLp migration	within the first hour	300 ± 30	IC50 (smooth muscle myosin II): 79600 nM; Solubility ([2]; 0.1 vol/vol% DMSO in assay buffer): 10.9 ± 0.9 µM (≈ 3.19 µg/mL); Solubility ([2]; 1 vol/vol% DMSO in assay buffer): 9.3 ± 0.7 µM (≈ 2.72 µg/mL); Solubility in aqueous buffer ([2]; abstract statement): below 10 micromolar; Time to drop to half concentration (precipitation kinetics) ([2]; freshly prepared 50 μM sample): < 20 min; Equilibrium saturation concentration ([2]; reached in two hours from 50–100 μM): 9 µM; Toxicity in live zebrafish embryo tests (zebrafish embryo): highly toxic
Cc1ccc2c(c1)C(=O)[C@]1(O)CCN(c3ccc(N)cc3)C1=N2 [para-aminoblebbistatin]	25.0 ± 4.3	16.8 ± 1.6	9.9 ± 0.3	470 ± 60	62.6 ± 3.6	3.2	halted pLLp migration	within three hours	1300 ± 100	Time constant τ of inhibition of blebbing (M2 cells; 50 μM): 7.8 ± 0.3 min; Fold higher IC50 of AmBleb on SkS1 ([1]; comparator not named (matches ratio to Bleb)): 4.3 times; IC50 ([6]; Homo sapiens, HeLa Kyoto, 72 h, read-out: IC50 of the inhibition of cell proliferation): 17800 ± 4700 nM; Fold weaker IC50 than blebbistatin's (cell proliferation) ([6]; day 3): 2–3 times; Concentration at which stable solutions are formed [2]: over 100 μM
